Measured values: PMC9402538, “Rational design of a sensitivity-enhanced tracer for discovering efficient APC–Asef inhibitors” (Nature Communications, 2022)
Like-named read-outs stand apart in the source and are kept apart here. Where a SMILES comes first, the peptide text is derived from it. The star is where a group is joined. Benzoyl(4-OMe) = COc1ccc(C(=O)*)cc1

Target: T1, APC (303–739) (Homo sapiens, UniProt P25054)
T1 sequence (P25054 303-739): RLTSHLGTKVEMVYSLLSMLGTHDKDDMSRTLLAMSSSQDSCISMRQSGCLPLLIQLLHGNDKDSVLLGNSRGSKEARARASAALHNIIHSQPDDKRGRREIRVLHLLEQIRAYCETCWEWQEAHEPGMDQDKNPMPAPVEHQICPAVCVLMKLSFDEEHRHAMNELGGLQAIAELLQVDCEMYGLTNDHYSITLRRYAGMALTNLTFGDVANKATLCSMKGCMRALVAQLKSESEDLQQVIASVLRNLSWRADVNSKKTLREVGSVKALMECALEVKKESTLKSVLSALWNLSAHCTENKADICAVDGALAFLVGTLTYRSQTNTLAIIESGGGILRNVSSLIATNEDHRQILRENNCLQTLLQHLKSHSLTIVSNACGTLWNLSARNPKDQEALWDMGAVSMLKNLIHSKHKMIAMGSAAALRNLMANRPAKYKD
Test: FP competitive assay using tracer 7
Type: binding
Conditions: for IC50: Table 3 source data
Outline: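 Fluorescence polarization competition: APC (303–739) in 50 mM HEPES pH 7.5, 300 mM NaCl, 1 mM EDTA, 1 mM DTT, preincubated 1 h at room temperature with serially diluted peptides. FITC tracer 7 then added (400 nM stock) and FP read after 1.5 h at room temperature; IC50 by nonlinear regression, triplicates.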

## COc1ccc(C(=O)N[C@@H](C)C(=O)NCC(=O)N[C@@H](CCC(=O)O)C(=O)N[C@@H](CO)C(=O)N[C@@H](CC(C)C)C(=O)N[C@@H](Cc2ccc(O)cc2)C(=O)N[C@@H](CCC(=O)O)C(N)=O)cc1 [MAI-516] ({Benzoyl(4-OMe)}-AGESLYE-NH2)
Conc. 0.0002 μM, individual repeats, Fig3b, read-out: %inhibition
  inhibition at 0.0002 µM: 0.5%
Conc. 0.0005 μM, individual repeats, Fig3b, read-out: %inhibition
  inhibition at 0.0005 µM: -0.4%
Conc. 0.001 μM, individual repeats, Fig3b, read-out: %inhibition
  inhibition at 0.001 µM: 0.3%
Conc. 0.002 μM, individual repeats, Fig3b, read-out: %inhibition
  inhibition at 0.002 µM: 0.4%
Conc. 0.0024 μM, individual repeats, Fig3b, read-out: %inhibition
  inhibition at 0.0024 µM: 2.8%
Conc. 0.0039 μM, individual repeats, Fig3b, read-out: %inhibition
  inhibition at 0.0039 µM: 3.1%
Conc. 0.0049 μM, individual repeats, Fig3b, read-out: %inhibition
  inhibition at 0.0049 µM: 6.1%
Conc. 0.006 μM, individual repeats, Fig3b, read-out: %inhibition
  inhibition at 0.006 µM: 3.8%
Conc. 0.0078 μM, individual repeats, Fig3b, read-out: %inhibition
  inhibition at 0.0078 µM: 6.6%
Conc. 0.0098 μM, individual repeats, Fig3b, read-out: %inhibition
  inhibition at 0.0098 µM: 13.7%
Conc. 0.012 μM, individual repeats, Fig3b, read-out: %inhibition
  inhibition at 0.012 µM: 8.8%
Conc. 0.0156 μM, individual repeats, Fig3b, read-out: %inhibition
  inhibition at 0.0156 µM: 19.4%
Conc. 0.0195 μM, individual repeats, Fig3b, read-out: %inhibition
  inhibition at 0.0195 µM: 28.4%
Conc. 0.024 μM, individual repeats, Fig3b, read-out: %inhibition
  inhibition at 0.024 µM: 22.1%
Conc. 0.0313 μM, individual repeats, Fig3b, read-out: %inhibition
  inhibition at 0.0313 µM: 44%
Conc. 0.0391 μM, individual repeats, Fig3b, read-out: %inhibition
  inhibition at 0.0391 µM: 48.7%
Conc. 0.049 μM, individual repeats, Fig3b, read-out: %inhibition
  inhibition at 0.049 µM: 44.6%
Conc. 0.0625 μM, individual repeats, Fig3b, read-out: %inhibition
  inhibition at 0.0625 µM: 65.8%
Conc. 0.0781 μM, individual repeats, Fig3b, read-out: %inhibition
  inhibition at 0.0781 µM: 67.8%
Conc. 0.098 μM, individual repeats, Fig3b, read-out: %inhibition
  inhibition at 0.098 µM: 67.3%
Conc. 0.125 μM, individual repeats, Fig3b, read-out: %inhibition
  inhibition at 0.125 µM: 80.6%
Conc. 0.1563 μM, individual repeats, Fig3b, read-out: %inhibition
  inhibition at 0.1563 µM: 82%
Conc. 0.195 μM, individual repeats, Fig3b, read-out: %inhibition
  inhibition at 0.195 µM: 81.2%
Conc. 0.25 μM, individual repeats, Fig3b, read-out: %inhibition
  inhibition at 0.25 µM: 89.6%
Conc. 0.3125 μM, individual repeats, Fig3b, read-out: %inhibition
  inhibition at 0.3125 µM: 90.7%
Conc. 0.391 μM, individual repeats, Fig3b, read-out: %inhibition
  inhibition at 0.391 µM: 89.5%
Conc. 0.5 μM, individual repeats, Fig3b, read-out: %inhibition
  inhibition at 0.5 µM: 95.1%
Conc. 0.625 μM, individual repeats, Fig3b, read-out: %inhibition
  inhibition at 0.625 µM: 96%
Conc. 0.781 μM, individual repeats, Fig3b, read-out: %inhibition
  inhibition at 0.781 µM: 94.6%
Conc. 1 μM, individual repeats, Fig3b, read-out: %inhibition
  inhibition at 1 µM: 98.2%
Conc. 1.25 μM, individual repeats, Fig3b, read-out: %inhibition
  inhibition at 1.25 µM: 98.2%
Conc. 1.563 μM, individual repeats, Fig3b, read-out: %inhibition
  inhibition at 1.563 µM: 96.2%
Conc. 2 μM, individual repeats, Fig3b, read-out: %inhibition
  inhibition at 2 µM: 99.4%
Conc. 2.5 μM, individual repeats, Fig3b, read-out: %inhibition
  inhibition at 2.5 µM: 99.2%
Conc. 3.125 μM, individual repeats, Fig3b, read-out: %inhibition
  inhibition at 3.125 µM: 98.2%
Conc. 5 μM, individual repeats, Fig3b, read-out: %inhibition
  inhibition at 5 µM: 100%
Conc. 6.25 μM, individual repeats, Fig3b, read-out: %inhibition
  inhibition at 6.25 µM: 98.1%
Conc. 10 μM, individual repeats, Fig3b, read-out: %inhibition
  inhibition at 10 µM: 101%
Conc. 12.5 μM, individual repeats, Fig3b, read-out: %inhibition
  inhibition at 12.5 µM: 98.5%
Conc. 20 μM, individual repeats, Fig3b, read-out: %inhibition
  inhibition at 20 µM: 100%
Conc. 25 μM, individual repeats, Fig3b, read-out: %inhibition
  inhibition at 25 µM: 99.7%
Conc. 50 μM, individual repeats, Fig3b, read-out: %inhibition
  inhibition at 50 µM: 99%
Repeat 1, Conc. 0.0024 μM
  mean (FP signal, FigS5): 278.3
Repeat 1, Conc. 0.0049 μM
  mean (FP signal, FigS5): 270.3
Repeat 1, Conc. 0.0098 μM
  mean (FP signal, FigS5): 252
Repeat 1, Conc. 0.0195 μM
  mean (FP signal, FigS5): 216.7
Repeat 1, Conc. 0.0391 μM
  mean (FP signal, FigS5): 168
Repeat 1, Conc. 0.0781 μM
  mean (FP signal, FigS5): 122
Repeat 1, Conc. 0.1563 μM
  mean (FP signal, FigS5): 88
Repeat 1, Conc. 0.3125 μM
  mean (FP signal, FigS5): 67
Repeat 1, Conc. 0.625 μM
  mean (FP signal, FigS5): 54.3
Repeat 1, Conc. 1.25 μM
  mean (FP signal, FigS5): 49
Repeat 1, Conc. 2.5 μM
  mean (FP signal, FigS5): 46.7
Repeat 1, Conc. 5 μM
  mean (FP signal, FigS5): 44.3
Repeat 1, Conc. 10 μM
  mean (FP signal, FigS5): 42.7
Repeat 1, Conc. 20 μM
  mean (FP signal, FigS5): 44.3
Repeat 1, read-out: IC50(μM) Repeat 1
  IC50: 0.0453 µM
Repeat 2, Conc. 0.0002 μM
  mean (FP signal, FigS5): 302.3
Repeat 2, Conc. 0.0005 μM
  mean (FP signal, FigS5): 304.7
Repeat 2, Conc. 0.001 μM
  mean (FP signal, FigS5): 303
Repeat 2, Conc. 0.002 μM
  mean (FP signal, FigS5): 302.7
Repeat 2, Conc. 0.0039 μM
  mean (FP signal, FigS5): 295.7
Repeat 2, Conc. 0.0078 μM
  mean (FP signal, FigS5): 286.7
Repeat 2, Conc. 0.0156 μM
  mean (FP signal, FigS5): 253.7
Repeat 2, Conc. 0.0313 μM
  mean (FP signal, FigS5): 190.3
Repeat 2, Conc. 0.0625 μM
  mean (FP signal, FigS5): 134.3
Repeat 2, Conc. 0.125 μM
  mean (FP signal, FigS5): 96.3
Repeat 2, Conc. 0.25 μM
  mean (FP signal, FigS5): 73
Repeat 2, Conc. 0.5 μM
  mean (FP signal, FigS5): 59
Repeat 2, Conc. 1 μM
  mean (FP signal, FigS5): 51
Repeat 2, Conc. 2 μM
  mean (FP signal, FigS5): 48
Repeat 2, read-out: IC50(μM) Repeat 2
  IC50: 0.0412 µM
Repeat 3, Conc. 0.006 μM
  mean (FP signal, FigS5): 307.3
Repeat 3, Conc. 0.012 μM
  mean (FP signal, FigS5): 294
Repeat 3, Conc. 0.024 μM
  mean (FP signal, FigS5): 259
Repeat 3, Conc. 0.049 μM
  mean (FP signal, FigS5): 199.7
Repeat 3, Conc. 0.098 μM
  mean (FP signal, FigS5): 140
Repeat 3, Conc. 0.195 μM
  mean (FP signal, FigS5): 103.3
Repeat 3, Conc. 0.391 μM
  mean (FP signal, FigS5): 81.3
Repeat 3, Conc. 0.781 μM
  mean (FP signal, FigS5): 68
Repeat 3, Conc. 1.563 μM
  mean (FP signal, FigS5): 63.7
Repeat 3, Conc. 3.125 μM
  mean (FP signal, FigS5): 58.3
Repeat 3, Conc. 6.25 μM
  mean (FP signal, FigS5): 58.7
Repeat 3, Conc. 12.5 μM
  mean (FP signal, FigS5): 57.7
Repeat 3, Conc. 25 μM
  mean (FP signal, FigS5): 54.3
Repeat 3, Conc. 50 μM
  mean (FP signal, FigS5): 56.3
Repeat 3, read-out: IC50(μM) Repeat 3
  IC50: 0.0379 µM
Mean of 3 repeats, read-out: IC50(μM) mean
  IC50: 0.0415 µM
